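Assay format: 96-well plates, 48-hour exposure. The concentration for full growth arrest is given as TGI.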
Experiments:
Experiment in all cases: DTP human tumour cell line panel, 48 h
HOP-92 NSCLC = test system: HOP-92 NSCLC
NCI/ADR-RES ovarian = test system: NCI/ADR-RES ovarian
ACHN renal = test system: ACHN renal
PC-3 prostate = test system: PC-3 prostate
SK-MEL-28 melanoma = test system: SK-MEL-28 melanoma
A498 renal = test system: A498 renal
SF-268 CNS = test system: SF-268 CNS
HCC-2998 colon = test system: HCC-2998 colon
SK-MEL-5 melanoma = test system: SK-MEL-5 melanoma
MALME-3M melanoma = test system: MALME-3M melanoma
SNB-19 CNS = test system: SNB-19 CNS
SK-MEL-2 melanoma = test system: SK-MEL-2 melanoma
RPMI-8226 leukemia = test system: RPMI-8226 leukemia
RXF 393 renal = test system: RXF 393 renal
HS 578T breast = test system: HS 578T breast
HOP-62 NSCLC = test system: HOP-62 NSCLC
U251 CNS = test system: U251 CNS
MDA-MB-435 = test system: MDA-MB-435
CCRF-CEM leukemia = test system: CCRF-CEM leukemia
CAKI-1 renal = test system: CAKI-1 renal
KM12 colon = test system: KM12 colon
T-47D breast = test system: T-47D breast
K-562 leukemia = test system: K-562 leukemia
SF-295 CNS = test system: SF-295 CNS
OVCAR-4 ovarian = test system: OVCAR-4 ovarian
786-0 renal = test system: 786-0 renal
SK-OV-3 ovarian = test system: SK-OV-3 ovarian
LOX IMVI melanoma = test system: LOX IMVI melanoma
UACC-62 melanoma = test system: UACC-62 melanoma
OVCAR-5 ovarian = test system: OVCAR-5 ovarian
BT-549 breast = test system: BT-549 breast
HCT-15 colon = test system: HCT-15 colon
HL-60(TB) leukemia = test system: HL-60(TB) leukemia
OVCAR-3 ovarian = test system: OVCAR-3 ovarian
EKVX NSCLC = test system: EKVX NSCLC
SNB-75 CNS = test system: SNB-75 CNS
SR leukemia = test system: SR leukemia
OVCAR-8 ovarian = test system: OVCAR-8 ovarian
SN12C renal = test system: SN12C renal
MDA-N = test system: MDA-N
HT29 colon = test system: HT29 colon
UO-31 renal = test system: UO-31 renal
SW-620 colon = test system: SW-620 colon
MDA-MB-231 breast = test system: MDA-MB-231 breast
NCI-H226 lung = test system: NCI-H226 lung
UACC-257 melanoma = test system: UACC-257 melanoma
NCI-H522 lung = test system: NCI-H522 lung
DU-145 prostate = test system: DU-145 prostate
NCI-H460 lung = test system: NCI-H460 lung
COLO 205 colon = test system: COLO 205 colon
M14 melanoma = test system: M14 melanoma
SF-539 CNS = test system: SF-539 CNS
TK-10 renal = test system: TK-10 renal
A549 NSCLC = test system: A549 NSCLC
IGROV1 ovarian = test system: IGROV1 ovarian
HCT-116 colon = test system: HCT-116 colon
NCI-H23 lung = test system: NCI-H23 lung
MOLT-4 leukemia = test system: MOLT-4 leukemia
MCF7 breast = test system: MCF7 breast

Measured: TGI

CCN(CC)c1ccc2c(c1)Oc1ccc(N(C(C)=O)c3ccccc3)cc1C21OC(=O)c2ccccc21 (stereo not drawn)
97.6 µM: HL-60(TB) leukemia
> 100 µM: all other assays above

O=C(CCCC1Cc2ccccc2C1=O)c1ccccc1 (stereo not drawn)
77.4 µM: HL-60(TB) leukemia
56.3 µM: MCF7 breast
84.6 µM: NCI/ADR-RES ovarian
> 100 µM: all other assays above
